According to patent US7897727B2, “Bioactive peptide for cell adhesion” (University of Delaware, priority 2000, dated 2011):
“Also recorded” adds a separate entry of the source. No end group written: not given here.

Assays:
marrow stromal cells HS5 = assay: Cell adhesion assay on coated 96 well plates (MTS), HS5 cells; format: cell-based; conditions: peptide conjugated to BSA coated on MAXISORP plates; 1 hr attachment at 37° C.; serum-free RPMI 1640
Procedure: (§1) Concentrated stocks of rat-tail type I collagen were diluted to designated concentrations in 0.02 N acetic acid and coated overnight on MAXISORP® 96 well plates at room temperature (RT). Poly-L-lysine (PLL), heat-denatured bovine serum albumin (BSA), the peptide of SEQ ID NO:1 conjugated to BSA (indicated in FIGS. 4-7 as “PLN4”) and a scrambled peptide from domain IV of perlecan having the amino acid sequence TGKSVGGSLIWPVRGQH (SEQ ID NO:4) conjugated to BSA (indicated in FIGS. 4-7 as “PLN4*”) were diluted in 1×phosphate buffered saline (PBS) and also coated overnight on MAXISORP® 96 well plates at RT. The following day, the plates were washed three times with 1×PBS to remove any residue and blocked with 1% heat-denatured BSA for 1 hr at 37° C. Following blocking, plates were washed once with 1×PBS. Cells from various cell lines were harvested with 0.5 mM EDTA and collected by centrifugation. Pelleted cells were resuspended in serum-free RPMI 1640 and plated at a concentration of 2.5×10^4 cells per 100 μl. Cells were allowed to attach to the wells for 1 hr at 37° C. Next, the wells were washed once with 1% heat-denatured BSA to remove any unattached cells. Cell adhesion was quantified as in Example 1, using the CELLTITER 96® AQueous Non-Radioactive Cell Proliferation Assay (MTS). […] Following incubation, an Elisa plate reader was used to measure optical density. […]

PC3 cells = assay: Cell adhesion assay on coated 96 well plates (MTS), PC3 cells; format: cell-based; conditions: peptide conjugated to BSA coated on MAXISORP plates; 1 hr attachment at 37° C.; serum-free RPMI 1640
Procedure: as §1

[1] = system: marrow stromal cells HS27a; assay: Cell adhesion assay on coated 96 well plates (MTS), HS27a cells; format: cell-based; conditions: peptide conjugated to BSA coated on MAXISORP plates; 1 hr attachment at 37° C.; serum-free RPMI 1640
Procedure: as §1

HES cells = assay: Cell adhesion assay on coated 96 well plates (MTS), HES cells; format: cell-based, human; conditions: peptide conjugated to BSA coated on MAXISORP plates; 1 hr attachment at 37° C.; serum-free RPMI 1640
Procedure: as §1

[2] = system: multipotent mouse mesenchymal stem cells, 10T1/2; assay: Cell adhesion of 10T1/2 cells to coated plastic (CELLTITER 96 MTS assay); format: cell-based
Procedure: Adhesion is measured by the cell proliferation assay CELLTITER 96® AQueous Non-Radioactive Cell Proliferation Assay (MTS) sold by Promega, Inc. The CELLTITER 96® AQueous Non-Radioactive Cell Proliferation Assay is a calorimetric method for determining the number of viable cells in proliferation, cytotoxicity or chemosensitivity assays. The CELLTITER 96® AQueous Non-Radioactive Cell Proliferation Assay is composed of solutions of a tetrazolium compound (3-(4,5-dimethylthiazol-2-yl)-5-(3-carboxymethoxyphenyl)-2-(4-su-lfophenyl)-2H-tetrazolium, inner salt; MTS) and an electron coupling reagent (phenazine methosulfate) PMS. MTS is bioreduced by cells into a formazan that is soluble in tissue culture medium. The absorbance of the formazan at 490 nm can be measured directly from 96 well assay plates without additional processing. The conversion of MTS into the aqueous soluble formazan is accomplished by dehydrogenase enzymes found in metabolically active cells. The quantity of formazan product as measured by the amount of 490 nm absorbance is directly proportional to the number of living cells in culture.
No adhesion to uncoated plastic occurred during the 30 minute time period of this study. BSA (bovine serum albumin) and poly-L-lysine (PLL) were used as coating controls. Collagen I, a known adhesive protein substrate for these cells, served as positive control. […]

Sequence	cell adhesion / attachment and spreading, HS5 cells (marrow stromal cells HS5)	cell adhesion / attachment and spreading, PC3 cells (PC3 cells)	cell adhesion / attachment and spreading, HS27a cells [1]	cell adhesion / attachment and spreading, HES cells (HES cells)	adhesion of 10T1/2 cells ([2]; peptide conjugated to BSA, coated onto plastic, 30 minute time period, MTS absorbance 490 nm, listed as SEQ ID NO:1)	focal adhesion formation of 10T1/2 cells (photomicrographs) ([2]; plastic coated with BSA conjugated to the polypeptide)
TGKSVGGSLIWPVRGQH (also: conjugated to BSA) [PLN4*, scrambled peptide from domain IV of perlecan, conjugated to BSA, reference compound]	cell attachment and spreading did not occur	cell attachment and spreading did not occur	cell attachment and spreading did not occur	cell attachment and spreading did not occur	–	–
TWSKVGGHLRPGIVQSG (also: conjugated to BSA; listed as Homo sapiens) [PLN4, adhesive polypeptide derived from domain IV of perlecan; tested conjugated to BSA]	did not bind to the peptide	best adhesion and rapid focal adhesion formation of these four cell types	did not bind to the peptide	best adhesion and rapid focal adhesion formation of these four cell types	consistently strong; also recorded: best adhesion of the cell types reported herein	adhesion is followed by focal adhesion formation
